Test results reported in patent EP1500403A1, “PREVENTIVE/REMEDY FOR DIABETES” (Ajinomoto Co., Inc., priority 2002, dated 2003).

Columns and labels:
Type in all cases: in vivo
[1] = system: Male Wistar rats; test: Assessment of excretion action of urine sugar in rat (Test Example 2A); conditions: urine collected 24 hours
Description: Male Wistar rats aged 5 weeks (purchased from Charles River Japan, Inc.) were acclimatized in metabolic cages for one week, for use at this experiment. The test compounds suspended in olive oil were dosed at 5 ml per 1 kg rat body weight.
After the rats were starved for 4 hours, the test compounds were orally given to the rats at 11 am. Immediately after dosing until 24 hours later, urine was collected. The volume of urine was measured. Then, urine sugar concentration was assayed by glucose oxidase method, to calculate the glucose excretion into urine per individual per day.

[2] = system: glucose-loaded mice; test: Blood glucose time course after oral glucose loading in KK mice (Example II); conditions: glucose 1 g/kg p.o.
Description: KK mice (age of 25 weeks; male) fed with a commercially available high-calories feed for breeding (CMF; Oriental Yeast) were divided into groups with matched body weights. After starvation for 17 hours, glucose was orally given at 1 g/kg. Immediately thereafter, the inhibitor A of renal glucose reabsorption (30 mg/kg or 45 mg/kg) or metformin (200 mg/kg or 300 mg/kg) was orally given. Additionally, a group given with the inhibitor A of renal glucose reabsorption (30 mg/kg) and metformin (200 mg/kg) was prepared. A vehicle was orally given to a control group after glucose dosing.
Blood glucose level was assayed in a time course.

[3] = system: Type 2 diabetes model Zucker diabetic fatty rats; test: Insulin content in pancreas after repeated dosing in Zucker diabetic fatty rats, ELISA (Example V); conditions: twice daily p.o., day 39, starved 18 hours, inhibitor A 30 mg/kg, metformin 200 mg/kg, or both, ELISA of pancreas homogenates (Fig. 5)
Description: The agents were orally given twice daily at the same time period as in the case of the groups administered with a single one of these agents. Only a vehicle was orally given twice daily to the animals in a control group. On day 39 from the start of administration, the animals were starved for 18 hours. Then, pancreas was resected from the animals, for the assay of insulin in pancreas homogenates by ELISA, to compare the groups in terms of insulin content in pancreas.

[4] = system: Male Wistar rats; test: Assessment of excretion action of urine sugar in rat (Test Example 1B); conditions: Oral Administration in Rat (24 hours)
Description: Male Wistar rats aged 5 weeks (purchased from Charles River Japan, Inc.) were acclimatized in metabolic cages for one week, for use at this experiment. The test compounds suspended in olive oil were prepared into solutions to a dose of 5 ml per 1 kg rat body weight. After the rats were starved for 4 hours, the test compounds were orally given at 10, 30 and 100 mg/kg to the rats at 11 am. Immediately after dosing until 24 hours later, urine was collected. The volume of urine was measured. Then, urine glucose concentration was assayed by glucose oxidase method, to calculate the glucose excretion into urine per individual per day. As a positive control, 3-(5-benzo[b]furanyl)-2'-(6-o-methoxycarbonyl-β-D-glucopyranosyldxy)-6'-hydroxy-4'-methylpropiophenone [under a different name of 3-(benzo[b]furan-5-yl)-2', 6'-dihydroxy-4'-methylpropiophenone 2'-o-(6-o-methoxycarbonyl-β-D-glucopyranoside)] was used.

[5] = system: glucose-loaded rats; test: Blood glucose time course after oral glucose loading in rats (Example I); conditions: Wistar rats, glucose 1 g/kg p.o.
Description: Wistar rats (age of 7 weeks; male) were divided into groups with matched body weights. After 17-hour starvation, glucose was orally given at 1 g/kg to the animals. Immediately after the administration, the inhibitor A of renal glucose reabsorption or the inhibitor B of renal glucose reabsorption (A at 30 mg/kg or 60 mg/kg; B at 30 mg/kg or 80 mg/kg) or glibenclamide (1 mg/kg or 2 mg/kg) or nateglinide (50 mg/kg or 80 mg/kg) was orally given. Additionally, a group on the combined use of both of an inhibitor of renal glucose reabsorption and a hypoglycemic agent was also prepared. A vehicle was orally given to a control group after glucose administration.
Blood glucose was measured in a time course.

[6] = system: Type 2 diabetic model GK rats; test: Blood glucose after repeated once daily dosing in GK rats (Example III); conditions: once daily p.o., vs vehicle-dosed group (Fig. 4)
Description: These agents were orally given once daily at the same time period as in the group administered with a single one agent. Only a vehicle was given orally to a control group. On day 25 after the start of administration, blood glucose was assayed sequentially, to compare the groups in terms of the resulting blood glucose levels.

[7] = system: Type 2 diabetes model db/db mice; test: Nateglinide load test after repeated dosing in db/db mice (Example IV); conditions: for Blood glucose level 30 minutes after loading / Blood glucose level 120 minutes after loading / Blood glucose level before loading: db/db mice, compound successively dosed 80 mg/kg p.o. twice daily, day 25, Mean ± SD, N = 5; for Blood glucose level 30 minutes after loading / Blood glucose level 120 minutes after loading: loading with glucose 1 g/kg and nateglinide 50 mg/kg p.o.; for Blood glucose level before loading: starved 17 hours, nateglinide load test
Description: Type 2 diabetes model db/db mice (age 6 weeks) were fed and kept with a feed twice daily over one hour starting 9 am and one hour starting 3 pm, for one week. Then, the mice were divided into groups with matched blood glucose levels and body weights. Subsequently, the inhibitor B of renal glucose reabsorption at 80 mg/kg or nateglinide at 80 mg/kg was orally given, immediately before feeding twice daily. Only a vehicle was orally given immediately before feeding twice daily to the animals of a control group. On day 25 from the start of administration, the mice of the individual experimental groups were starved for 17 hours and then orally given glucose (1 g/kg) and nateglinide (50 mg/kg). Blood glucose levels were measured before and after the administration, to examine whether or not the hypoglycemic action of nateglinide could be observed (nateglinide load test).

[8] = Dose 100 mg/kg p.o. in olive oil
[9] = glibenclamide 1 mg/kg, inhibitor A 30 mg/kg, or both, p.o., vs vehicle group (Fig. 1)
[10] = nateglinide 50 mg/kg, inhibitor B 30 mg/kg, or both, p.o., vs vehicle group (Fig. 2)
[11] = nateglinide 80 mg/kg or inhibitor B 80 mg/kg p.o., vs lower dose (Fig. 2)

## COC(=O)OC[C@H]1O[C@@H](Oc2nn(C(C)C)c(C)c2Cc2ccc(OC)c(F)c2)[C@H](O)[C@@H](O)[C@@H]1O [Compound of Production Example 10-A, 4'-[(3'-fluoro-4'-methoxyphenyl)methyl]-1'-isopropyl-5'-methyl-1H-pyrazole-3'-o-(6-carbomethoxy)-β-D-glucopyranoside]
[1]; [8]
  Excreted urine sugar: 734 mg

## CN(C)C(=N)N=C(N)N [metformin]
[2]; metformin 200 mg/kg or inhibitor A 30 mg/kg p.o., vs control group (Fig. 3)
  increase of blood glucose / hyperglycemia 30 minutes after glucose loading: did not suppress the increase of blood glucose
[2]; metformin 200 mg/kg p.o. (Fig. 3)
  increase of blood glucose 60 minutes later and thereafter: suppressed the increase
[2]; metformin 300 mg/kg or inhibitor A 45 mg/kg p.o., vs lower dose (Fig. 3)
  pattern of glycemic suppression at elevated dose: did not change
[3]
  insulin content in pancreas: no difference was observed

## CCc1ccc(Cc2c(O[C@@H]3O[C@H](COC(=O)OC)[C@@H](O)[C@H](O)[C@H]3O)nn(Cc3ccccc3)c2C(F)(F)F)cc1 [Compound of Production Example 4-A, 4'-[(4'-ethylphenyl)methyl]-1'-benzyl-5'-trifluoromethyl-1H-pyrazole-3'-o-(6-carbomethoxy)-β-D-glucopyranoside]
[1]; [8]
  Excreted urine sugar: 27 mg

## CCc1ccc(Cc2c(O[C@@H]3O[C@H](COC(=O)OC)[C@@H](O)[C@H](O)[C@H]3O)nn(C(CF)CF)c2C(F)(F)F)cc1 [Compound of Production Example 2B, 4'-[(4'-ethylphenyl)methyl]-1'-(1',3'-difluoro-2'-propyl) -5'-(trifluoromethyl) -1H-pyrazole-3'-o-(6-o-methoxycarbonyl-β-D-glucopyranoside)]
[4]; Dose 10 mg/kg
  Excreted urine sugar: 136 mg
[4]; Dose 30 mg/kg
  Excreted urine sugar: 272 mg
[4]; Dose 100 mg/kg
  Excreted urine sugar: 524 mg

## CCc1ccc(Cc2c(O[C@@H]3O[C@H](COC(=O)OC)[C@@H](O)[C@H](O)[C@H]3O)nn(Cc3ccc(OC)cc3)c2C(F)(F)F)cc1 [Compound of Production Example 6-A, 4'-[(4'-ethylphenyl)methyl]-1'-[(4'-methoxyphenyl)methyl]-5'-trifluoromethyl-1H-pyrazole-3'-o-(6-carbomethoxy)-β-D-glucopyranoside]
[1]; [8]
  Excreted urine sugar: 59 mg

## CCc1ccc(Cc2c(O[C@@H]3O[C@H](COC(=O)OC)[C@@H](O)[C@H](O)[C@H]3O)nn(-c3ccccc3)c2C(F)(F)F)cc1 [Compound of Production Example 8-A, 4'-[(4'-ethylphenyl)methyl]-1'-phenyl-5'-trifluoromethyl-1H-pyrazole-3'-o-(6-carbomethoxy)-β-D-glucopyranoside]
[1]; [8]
  Excreted urine sugar: 4.1 mg

## COC(=O)OC[C@H]1O[C@@H](Oc2nn(C(C)C)c(C)c2Cc2ccc(C)c(F)c2)[C@H](O)[C@@H](O)[C@@H]1O [Compound of Production Example 14-A, 4'-[(3'-fluoro-4'-methylphenyl)methyl]-1'-isopropyl-5'-methyl-1H-pyrazole-3'-o-(6-carbomethoxy)-β-D-glucopyranoside]
[1]; [8]
  Excreted urine sugar: 918 mg

## COc1ccc(Cl)cc1C(=O)NCCc1ccc(S(=O)(=O)NC(=O)NC2CCCCC2)cc1 [glibenclamide]
[5]; [9]
  blood glucose level 120 minutes after glucose loading and thereafter: lowered blood glucose
  hyperglycemia / blood glucose level immediately after glucose loading (30 minutes): did not suppress hyperglycemia
[5]; glibenclamide 2 mg/kg or inhibitor A 60 mg/kg p.o., vs lower dose (Fig. 1)
  pattern of glycemic suppression at increased dose: did not change
[6]; day 25, glibenclamide 3 mg/kg, inhibitor A 30 mg/kg, or both
  blood glucose level: no difference was observed from the vehicle-dosed group
[6]; day 25, glibenclamide 6 mg/kg
  blood glucose level: did not produce any difference in blood glucose level from the vehicle-dosed group

## Cc1[nH]nc(O[C@@H]2O[C@H](CO)[C@@H](O)[C@H](O)[C@H]2O)c1Cc1ccc(OC(C)C)cc1 [4-[(4-isopropoxyphenyl)methyl)-5-methyl-1H-pyrazole-3-o-β-D-glucopyranoside]
[1]; [8]
  Excreted urine sugar: 14 mg

## CC(C)[C@H]1CC[C@H](C(=O)N[C@H](Cc2ccccc2)C(=O)O)CC1 [nateglinide]
[5]; nateglinide 50 mg/kg p.o., vs vehicle-dosed group (Fig. 2)
  blood glucose level 120 minutes after glucose loading and thereafter: did not lower the blood glucose level
[5]; [10]
  hyperglycemia / blood glucose level 30 minutes after glucose loading: more highly suppressed hyperglycemia
  hyperglycemia / blood glucose level 60 minutes after glucose loading: more highly suppressed hyperglycemia
[5]; [11]
  pattern of glycemic suppression at increased dose: did not change
[7]
  Blood glucose level 30 minutes after loading: 259 ± 18 mg/dL
  Blood glucose level 120 minutes after loading: 144 ± 20 mg/dL
  Blood glucose level before loading: 158 ± 12 mg/dL

## COC(=O)OC[C@H]1O[C@@H](Oc2cc(C)cc(O)c2C(=O)CCc2ccc3occc3c2)[C@H](O)[C@@H](O)[C@@H]1O [3-(5-benzo[b]furanyl)-2'-(6-o-methoxycarbonyl-β-D-glucopyranosyloxy)-6'-hydroxy-4'-methylpropiophenone]
[5]; inhibitor B 30 mg/kg alone or with nateglinide 50 mg/kg, p.o., vs vehicle group (Fig. 2)
  blood glucose level 180 minutes after glucose loading and thereafter: lower than that in the vehicle-dosed group
[5]; [10]
  hyperglycemia / blood glucose level 30 minutes after glucose loading: not reduced as greatly as in the case of nateglinide
[5]; [11]
  pattern of glycemic suppression at increased dose: pattern of glycemic suppression was also observed
[7]; db/db mice given inhibitor B 80 mg/kg twice daily long-term, compared with vehicle-dosed and nateglinide-dosed groups
  hyperglycemia due to glucose loading, 30 minutes after loading with glucose and nateglinide: greatly suppressed hyperglycemia
[7]
  Blood glucose level 30 minutes after loading: 172 ± 14 mg/dL
  Blood glucose level 120 minutes after loading: 103 ± 5 mg/dL
  Blood glucose level before loading: 131 ± 6 mg/dL
[4]; Dose 10 mg/kg
  Excreted urine sugar: 2 mg
[4]; Dose 30 mg/kg
  Excreted urine sugar: 78 mg
[4]; Dose 100 mg/kg
  Excreted urine sugar: 274 mg

## CCc1ccc(Cc2c(O[C@@H]3O[C@H](COC(=O)OC)[C@@H](O)[C@H](O)[C@H]3O)nn(C(C)C)c2C)cc1 [Compound of Production Example 16-A, 4'-[(4-ethylphenyl)methyl]-1'-isopropyl-5'-methyl-1H-pyrazole-3'-o-(6-carbomethoxy)-β-D-glucopyranoside]
[1]; Dose 3 mg/kg p.o. in olive oil
  Excreted urine sugar: 28 mg
[1]; Dose 10 mg/kg p.o. in olive oil
  Excreted urine sugar: 263 mg
[1]; Dose 30 mg/kg p.o. in olive oil
  Excreted urine sugar: 294 mg
[1]; [8]
  Excreted urine sugar: 598 mg
